Laboratory results reported in ChEMBL document CHEMBL5532682, “Recent advances of tryptanthrin and its derivatives as potential anticancer agents” (RSC Med Chem, 2024).
pIC50: −log10 of the molar value. Blank lines part the entries; values can stand above or below the compound they belong to.

Legend:
HeLa [1] = experiment: Antiproliferative activity against human HeLa cells incubated for 48 hrs; assay type: functional, cell-based
CT26 = experiment: Antiproliferative activity against mouse CT26 cells incubated for 48 hrs; assay type: functional, cell-based; conditions: CT26, 48 h
K562 [2] = experiment: Antiproliferative activity against human K562 cells incubated for 48 hrs; assay type: functional, cell-based; conditions: K562, 48 h
K562 [3] = experiment: Antiproliferative activity against human K562 cells; assay type: functional, cell-based
SK-OV-3 = experiment: Antiproliferative activity against human SK-OV-3 cells assessed as inhibition of cell growth; assay type: functional, cell-based
A549 [4] = experiment: Antiproliferative activity against human A549 cells assessed as cell growth inhibition; assay type: functional, cell-based
HeLa [5] = experiment: Antiproliferative activity against human HeLa cells assessed as cell growth inhibition; assay type: functional, cell-based
[6] = Antiproliferative activity against human HL7702 cells measured after 48 hrs by MTT assay; assay type: toxicity, cell-based; conditions: HL7702 (L02) cells
T-24 [7] = experiment: Antiproliferative activity against human T24 cells measured after 48 hrs by MTT assay; assay type: functional, cell-based; conditions: T-24, 48 h
WEHI3B = experiment: Antiproliferative activity against mouse WEHI3B cells assessed as inhibition of cell growth measured after 48 hrs; assay type: functional, cell-based
HepG2 [8] = experiment: Antiproliferative activity against human HepG2 cells incubated by 48 hrs by MTT assay; assay type: functional, cell-based; conditions: HepG2, 48 h
HepG2 [9] = experiment: Antiproliferative activity against human HepG2 cells measured after 48 hrs by MTT assay; assay type: functional, cell-based; conditions: HepG2, 48 h
MCF7 = experiment: Antiproliferative activity against human MCF7 cells; assay type: functional, cell-based
[10] = Antiproliferative activity against human HL7702 cells assessed as inhibition of cell growth; assay type: toxicity, cell-based; conditions: HL7702 (L02) cells
A549 [11] = experiment: Antiproliferative activity against human A549 cells measured after 48 hrs by MTT assay; assay type: functional, cell-based; conditions: A549, 48 h
NCI/ADR-RES = experiment: Antiproliferative activity against human MCF7ADR cells; assay type: functional, cell-based
[12] = Antiproliferative activity against mouse MC3T3-E1 cells; assay type: toxicity, cell-based
MGC-803 = experiment: Antiproliferative activity against human MGC-803 cells measured after 48 hrs by MTT assay; assay type: functional, cell-based; conditions: MGC-803, 48 h
HCT-116 = experiment: Antiproliferative activity against human HCT-116 cells measured after 48 hrs by MTT assay; assay type: functional, cell-based; conditions: HCT-116, 48 h
T-24 [13] = experiment: Antiproliferative activity against human T24 cells assessed as inhibition of cell growth; assay type: functional, cell-based
A549/CDDP = experiment: Antiproliferative activity against human A549/DDP cells assessed as inhibition of cell viability; assay type: functional, cell-based
K562 [14] = experiment: Antiproliferative activity against human K562 cells incubated by 48 hrs by MTT assay; assay type: functional, cell-based; conditions: K562, 48 h
[15] = Antiproliferative activity against human HL7702 cells assessed as inhibition of cell viability; assay type: toxicity, cell-based; conditions: HL7702 (L02) cells
MDA-MB-231 = experiment: Antiproliferative activity against human MDA-MB-231 cells measured after 48 hrs by MTT assay; assay type: functional, cell-based; conditions: MDA-MB-231, 48 h
A549 [16] = experiment: Antiproliferative activity against human A549 cells assessed as inhibition of cell viability; assay type: functional, cell-based
Bel-7402 = experiment: Antiproliferative activity against human Bel-7402 cells measured after 48 hrs by MTT assay; assay type: functional, cell-based; conditions: Bel-7402, 48 h
A549 [17] = experiment: Antiproliferative activity against human A549 cells incubated by 48 hrs by MTT assay; assay type: functional, cell-based; conditions: A549, 48 h
PC-3 = experiment: Antiproliferative activity against human PC-3 cells incubated by 48 hrs by MTT assay; assay type: functional, cell-based; conditions: PC-3, 48 h
A549 [18] = experiment: Antiproliferative activity against human A549 cells; assay type: functional, cell-based
HepG2 [19] = experiment: Antiproliferative activity against human HepG2 cells assessed as inhibition of cell growth; assay type: functional, cell-based

pIC50 (HeLa [1]): < 4.30
pIC50 (CT26): < 4.30
pIC50 (K562 [2]): 5.32
pIC50 (K562 [3]): 5.32
Structure (SMILES): CC(C)NC(=O)[C@@H]1[C@@]2(c3ccccc3)[C@H]3CCCN3[C@@]3(c4ccccc4-n4c3nc3ccccc3c4=O)[C@@]12c1ccccc1

pIC50 (SK-OV-3): 4.07
pIC50 (A549 [4]): < 3.82
pIC50 (HeLa [5]): < 3.82
pIC50 (HepG2 [8]): 5.02
pIC50 (HepG2 [9]): 4.05
pIC50 (MCF7): 4.03
pIC50 (A549 [11]): 4.13
pIC50 (MGC-803): 4.15
pIC50 (HCT-116): 4.76
pIC50 (A549/CDDP): < 4.00
pIC50 (K562 [14]): 4.92
pIC50 (MDA-MB-231): < 4.00
pIC50 (A549 [16]): < 4.00
pIC50 (Bel-7402): 4.38
pIC50 (A549 [17]): 5.08
pIC50 (PC-3): 4.84
pIC50 (A549 [18]): 4.13
pIC50 (HepG2 [19]): 4.05
Structure (SMILES): O=C1c2ccccc2-n2c1nc1ccccc1c2=O [TRYPTANTHRIN]
IC50 at 48 h [6]: 90.1 µM
pIC50 (T-24 [7]): < 3.82
pIC50 (WEHI3B): 5.82
pIC50 [10]: 4.05
pIC50 (NCI/ADR-RES): 4.02
pIC50 [12]: < 4.00
pIC50 (T-24 [13]): < 3.82
pIC50 [15]: < 4.00
